Results: patent US9498463B2, “Compound obtained from gamboge resin, and medical uses of the same” (priority 2010, dated 2016)
Converted amounts (≈) assume the structure as drawn. Like-named read-outs stand apart in the source and are kept apart here.

Legend:
[1] = tested on: Human umbilical venal epithelial cell (HUVEC); assay: in vitro; details: HUVEC; for LC50 (50% lethal concentration): normal human cell line; for IC50: Homo sapiens, read-out: IC50 (50% inhibition concentration), HUVEC, normal human cell line
Text: (§1) In Vitro Anti-Cancer Test
(§2) The in vitro anti-cancer test was primarily used to detect the effect of a candidate drug on cancer cell proliferation. The working principle involved therein is the ability of viable cells to shift alamarBlue (AbD Serotec, UK) from its originally non-fluorescent oxidized state (non-fluorescent, blue) to a reduced form (fluorescent, red) having fluorescence via metabolic reaction. According to the fluorescent data result generated by the alamarBlue reagent thus obtained, the proliferation of the viable cells and cell activity can be quantified for detection.
(§3) In the in vitro anti-cancer tests, a candidate drug was tested at 5 different concentrations of 0.01, 0.1, 1, 10, and 100 μg/ml, and six human cancer cell lines and a normal human cell line were used (see Table 5).

[2] = tested on: Human breast adenocarcinoma cell MCF7; assay: cells
Text: as §1, §2, §3

[3] = tested on: Human colon adenocarcinoma cell HT-29; assay: cells; details: HT-29, read-out: IC50 (50% inhibition concentration), HT-29
Text: as §1, §2, §3

[4] = tested on: Human hepatocellular carcinoma cell HepG2; assay: cells; details: HepG2, read-out: IC50 (50% inhibition concentration), HepG2
Text: as §1, §2, §3

[5] = tested on: Human histocytic lymphoma cell U937; assay: cells; details: U-937, read-out: IC50 (50% inhibition concentration), U937
Text: as §1, §2, §3

[6] = tested on: Human lung carcinoma cell A549; assay: cells
Text: as §1, §2, §3

[7] = tested on: Human promyelocytic leukemia cell HL-60; assay: cells; details: HL-60, read-out: IC50 (50% inhibition concentration), HL-60
Text: as §1, §2, §3

[8] = in vitro
Text: as §1, §2, §3

[9] = Homo sapiens, MCF7, read-out: IC50 (50% inhibition concentration), MCF-7
[10] = A549, read-out: IC50 (50% inhibition concentration), A549

SMILES	LC50 (50% lethal concentration) [1] [µg/mL]	IC50 [2, 9] [µg/mL]	IC50 [3] [µg/mL]	IC50 [4] [µg/mL]	IC50 [5] [µg/mL]	IC50 [6, 10] [µg/mL]	IC50 [7] [µg/mL]	IC50 [1] [µg/mL]	other results
C=C(C)C1CC[C@@]2(C)Oc3c(CC=C(C)C)c4c(c(O)c3[C@@H]1C2O)C(=O)C1=C[C@@H]2CC3C(C)(C)OC(C/C=C(/C)C(=O)O)(C2=O)[C@@]13O4 (stereo in doubt) [Gh-1050, 2-butenoic acid, 2-methyl-4-[(1R,3aS,5S,9R,10S,13R,16aS,17S)-3a,4,5,7,10,11,12,13-octahydro-8,17-dihydroxy-3,3,13-trimethyl-15-(3-methyl-2-butenyl)-10-(1-methylethenyl)-7,18-dioxo-1,5:9,13-dimethano-1H,3H,9H-furo[3.4-g]oxocino[3.2-b]xanthen-1-yl]-,(2Z)-]	3.4 (≈ 5.27 µM)								
CC(C)=CCC[C@@]1(C)Oc2c(c(O)c3c(c2CC=C(C)C)O[C@]24C(=C[C@@H]5CC2C(C)(C)OC4(C/C=C(/C)C(=O)O)C5=O)C3=O)C[C@H]1O (stereo in doubt) [Gh-1631, 2-butenoic acid, 2-methyl-4-[(1R,3aS,5S,10R,11R,14aS)-3a,4,5,7,10,11-hexahydro-8,10-dihydroxy-3,3,11-trimethyl-13-(3-methyl-2-butenyl)-11-(4-methyl-3-pentenyl)-7,15-dioxo-1,5-methano-1H,3H,9H-furo[3.4-g]pyrano[3.2-b]xanthen-1-yl]-,(2Z)-]		0.14	6.1 (≈ 9.43 µM)	0.85 (≈ 1.31 µM)	0.18 (≈ 0.278 µM)	0.14 (≈ 0.216 µM)	0.19 (≈ 0.294 µM)	0.58 (≈ 0.897 µM)	
CC(C)=CCc1c2c(c(O)c3c1O[C@]14C(=C[C@@H]5CC1C(C)(C)OC4(C/C=C(\C)C(=O)O)C5=O)C3=O)C=CC(C)(C/C=C\C(C)(C)O)O2 (stereo in doubt) [Gh-3332, 2-butenoic acid, 2-methyl-4-[(1R,3aS,5S,14aS)-3a,4,5,7-tetrahydro-8-hydroxy-3,3,11-trimethyl-13-(3-methyl-2-butenyl)-11-(4-hydroxy-4-methyl-2Z-pentenyl)-7,15-dioxo-1,5-methano-1H,3H,11H-furo[3.4-g]pyrano[3.2-b]xanthen-1-yl]-,(2E)-]	3.3 (≈ 5.12 µM)								
CC(C)=CCC[C@@]1(C)C=Cc2c(O)c3c(c(CC(O)C(C)(C)O)c2O1)O[C@]12C(=C[C@@H]4CC1C(C)(C)OC2(C/C=C(/C)C(=O)O)C4=O)C3=O (stereo partly drawn) [Gh-1036, 2-butenoic acid, 2-methyl-4-[(1R,3aS,5S,11S,14aS)-3a,4,5,7-tetrahydro-8-hydroxy-3,3,11-trimethyl-13-(2,3-dihydroxy-3-methylbutyl)-11-(4-methyl-3-pentenyl)-7,15-dioxo-1,5-methano-1H,3H,11H-furo[3.4-g]pyrano[3.2-b]xanthen-1-yl]-,(2Z)-]		0.35	1.4 (≈ 2.11 µM)	0.88 (≈ 1.33 µM)	0.29 (≈ 0.438 µM)	0.22 (≈ 0.332 µM)	0.45 (≈ 0.679 µM)	0.46 (≈ 0.694 µM)	
CC(C)=CCC[C@]1(C)C=Cc2c(O)c3c(c(CC(O)C(C)(C)O)c2O1)O[C@]12C(=C[C@@H]4CC1C(C)(C)OC2(C/C=C(/C)C(=O)O)C4=O)C3=O (stereo partly drawn) [Gh-1052, 2-butenoic acid, 2-methyl-4-[(1R,3aS,5S,11R,14aS)-3a,4,5,7-tetrahydro-8-hydroxy-3,3,11-trimethyl-13-(2,3-dihydroxy-3-methylbutyl)-11-(4-methyl-3-pentenyl)-7,15-dioxo-1,5-methano-1H,3H,11H-furo[3.4-g]pyrano[3.2-b]xanthen-1-yl]-,(2Z)-]		0.52	1.6 (≈ 2.41 µM)	1.2 (≈ 1.81 µM)	0.22 (≈ 0.332 µM)	0.46 (≈ 0.694 µM)	0.23 (≈ 0.347 µM)	0.47 (≈ 0.709 µM)	
C=C(C)C1CC[C@]2(C)C[C@H]1c1c(O)c3c(c(CC=C(C)C)c1O2)O[C@]12C(=C[C@@H]4CC1C(C)(C)OC2(C/C=C(/C)C(=O)O)C4=O)C3=O (stereo partly shown) [Gh-2603-2, gambogellic acid]									CC50 [8]: 1.7 µg/mL (≈ 2.7 µM); IC50 ([6]; A549, read-out: IC50 (50% inhibition concentration)): 0.2 µg/mL (≈ 0.318 µM)
CC(C)=CCc1c2c(c(O)c3c1O[C@]14C(=C[C@@H]5CC1C(C)(C)OC4(C/C=C(/C)C(=O)O)C5=O)C3=O)C=C[C@@](C)(CCC(O)C(C)(C)O)O2 (stereo partly drawn) [Gh-3261, 2-butenoic acid, 2-methyl-4-[(1R,3aS,5S,11R,14aS)-3a,4,5,7-tetrahydro-8-hydroxy-3,3,11-trimethyl-13-(3-methyl-2-butenyl)-11-(3,4-dihydroxy-4-methylpentyl)-7,15-dioxo-1,5-methano-1H,3H,11H-furo[3.4-g]pyrano[3.2-b]xanthen-1-yl]-,(2Z)-]		0.36	1.1 (≈ 1.66 µM)	1 (≈ 1.51 µM)	0.11 (≈ 0.166 µM)	0.19 (≈ 0.287 µM)	1.9 (≈ 2.87 µM)	0.29 (≈ 0.438 µM)	
CC(C)=CCc1c2c(c(O)c3c1O[C@]14C(=C[C@@H]5CC1C(C)(C)OC4(C/C=C(/C)C(=O)O)C5=O)C3=O)C=C[C@](C)(CCC(O)C(C)(C)O)O2 (stereo partly drawn) [Gh-3271, 2-butenoic acid, 2-methyl-4-[(1R,3aS,5S,11S,14aS)-3a,4,5,7-tetrahydro-8-hydroxy-3,3,11-trimethyl-13-(3-methyl-2-butenyl)-11-(3,4-dihydroxy-4-methylpentyl)-7,15-dioxo-1,5-methano-1H,3H,11H-furo[3.4-g]pyrano[3.2-b]xanthen-1-yl]-,(2Z)-]		0.16	1.8 (≈ 2.72 µM)	0.46 (≈ 0.694 µM)	0.11 (≈ 0.166 µM)	0.25 (≈ 0.377 µM)	3 (≈ 4.53 µM)	0.42 (≈ 0.634 µM)	
CC(C)=CCc1c2c(c(O)c3c1O[C@]14C(=C[C@@H]5CC1C(C)(C)OC4(C/C=C(/C)C(=O)O)C5=O)C3=O)C=C[C@@](C)(C/C=C/C(C)(C)O)O2 [Gh-3272, 2-butenoic acid, 2-methyl-4-[(1R,3aS,5S,11R,14aS)-3a,4,5,7-tetrahydro-8-hydroxy-3,3,11-trimethyl-13-(3-methyl-2-butenyl)-11-(4-hydroxy-4-methyl-2E-pentenyl)-7,15-dioxo-1,5-methano-1H,3H,11H-furo[3.4-g]pyrano[3.2-b]xanthen-1-yl]-,(2Z)-]	2.5 (≈ 3.88 µM)								
C=C(C)C(O)CC[C@]1(C)C=Cc2c(O)c3c(c(CC=C(C)C)c2O1)O[C@]12C(=C[C@@H]4CC1C(C)(C)OC2(C/C=C(/C)C(=O)O)C4=O)C3=O (stereo partly drawn) [Gh-3291, 2-butenoic acid, 2-methyl-4-[(1R,3aS,5S,11R,14aS)-3a,4,5,7-tetrahydro-8-hydroxy-3,3,11-trimethyl-13-(3-methyl-2-butenyl)-11-(3-hydroxy-4-methyl-4-pentenyl)-7,15-dioxo-1,5-methano-1H,3H,11H-furo[3.4-g]pyrano[3.2-b]xanthen-1-yl]-,(2Z)-]	1.4 (≈ 2.17 µM)								
CC(C)=CCC[C@@]1(C)C=Cc2c(O)c3c(c(C(O)C4OC4(C)C)c2O1)O[C@]12C(=C[C@@H]4CC1C(C)(C)OC2(C/C=C(/C)C(=O)O)C4=O)C3=O (stereo partly drawn) [Gh-3311, 2-butenoic acid, 2-methyl-4-[(1R,3aS,5S,11S,14aS)-3a,4,5,7-tetrahydro-8-hydroxy-3,3,11-trimethyl-13-(1-hydroxy-2,3-epoxy-3-methylbutyl)-11-(4-methyl-3-pentenyl)-7,15-dioxo-1,5-methano-1H,3H,11H-furo[3.4-g]pyrano[3.2-b]xanthen-1-yl]-,(2Z)-]	13.9 (≈ 21 µM)								
CC(C)=CCC[C@@]1(C)C=Cc2c(O)c3c(c(CC4OC4(C)C)c2O1)O[C@]12C(=C[C@@H]4CC1C(C)(C)OC2(C/C=C(/C)C(=O)O)C4=O)C3=O (stereo partly drawn) [Gh-3351, 2-butenoic acid, 2-methyl-4-[(1R,3aS,5S,11S,14aS)-3a,4,5,7-tetrahydro-8-hydroxy-3,3,11-trimethyl-13-(2,3-epoxy-3-methylbutyl)-11-(4-methyl-3-pentenyl)-7,15-dioxo-1,5-methano-1H,3H,11H-furo[3.4-g]pyrano[3.2-b]xanthen-1-yl]-,(2Z)-]	3.3 (≈ 5.12 µM)								
CC(C)=CCC[C@]1(C)C=Cc2c(O)c3c(c(CC4OC4(C)C)c2O1)O[C@]12C(=C[C@@H]4CC1C(C)(C)OC2(C/C=C(/C)C(=O)O)C4=O)C3=O (stereo partly drawn) [Gh-3352, 2-butenoic acid, 2-methyl-4-[(1R,3aS,5S,11R,14aS)-3a,4,5,7-tetrahydro-8-hydroxy-3,3,11-trimethyl-13-(2,3-epoxy-3-methylbutyl)-11-(4-methyl-3-pentenyl)-7,15-dioxo-1,5-methano-1H,3H,11H-furo[3.4-g]pyrano[3.2-b]xanthen-1-yl]-,(2Z)-]	0.85 (≈ 1.32 µM)								
CC(C)=CCC[C@]1(C)C=Cc2c(O)c3c(c(C(O)C4OC4(C)C)c2O1)O[C@]12C(=C[C@@H]4CC1C(C)(C)OC2(C/C=C(/C)C(=O)O)C4=O)C3=O (stereo partly drawn) [Gh-3353, 2-butenoic acid, 2-methyl-4-[(1R,3aS,5S,11R,14aS)-3a,4,5,7-tetrahydro-8-hydroxy-3,3,11-trimethyl-13-(1-hydroxy-2,3-epoxy-3-methylbutyl)-11-(4-methyl-3-pentenyl)-7,15-dioxo-1,5-methano-1H,3H,11H-furo[3.4-g]pyrano[3.2-b]xanthen-1-yl]-,(2Z)-]	8.4 (≈ 12.7 µM)								
CO[C@@]12[C@H](COC(N)=O)C3=C(C(=O)C(C)=C(N)C3=O)N1C[C@@H]1N[C@@H]12 [Mitomycin, mitomycin, reference compound]									IC50 ([2]; read-out: IC50 (50% inhibition concentration), MCF-7, positive control): 150 nM
